Results on three compounds are retold here after PMC7619385 (ACS infectious diseases, 2025).

Assay [1] deals with T1, NLuc::LmxCLK1 (Leishmania mexicana, UniProt E9AMP2). Nature of the assay: In vitro BRET with purified NLuc::LmxCLK1. The assay is classed as binding. The method, then:
(§1) in vitro BRET used purified NLuc-LmxCLK1 in Kinase Buffer (50 mM HEPES, 1 mM EGTA, 10 mM MgCl^2, 2 mM DTT and 0.01% Tween-20) aliquoted into 96-well plates (Greiner #655904). In cell BRET assays used engineered L. mexicana (promastigotes or intramacrophage amastigotes) expressing NLuc-LmxCLK1 in cell media aliquoted into 96-well plates (Greiner, #655083). For tracer titration experiments, BRET probes were serially diluted from 100% DMSO stocks – first in 100% DMSO to 100x final assay concentration, and then in Tracer Dilution Buffer (TDB - 12.5 mM HEPES, pH 7.5; 31.25% PEG 400) to 20x the final assay concentration. Serially diluted probes (5 µL) were added to 85 µL of cells in culture media or 85 µL of purified protein. Final well volumes were adjusted to 100 µL with sterile Opti-MEM™ I Reduced Serum Medium (Thermo-Scientific) – for wells containing cells; or Kinase Buffer - for wells containing purified protein. For tracer displacement assays, samples were prepared as above, but final volume was brought to 100 µL by addition of vehicle or serially-diluted test compounds. Final DMSO concentration in these assays was 1%. Plates were incubated for 30 min at 25 °C (purified protein and promastigotes) or 34 °C (intramacrophage amastigotes), and 50 µL of Promega cocktail containing furimazine and NLuc extracellular inhibitor (catalog #N2161) were added to each well. Light emissions at 460+10 nm (BRET donor) and at 610+20 nm (BRET acceptor) were sequentially recorded (integration time = 0.5 s, gain = 3600) using a luminometer (BMG LABTECH Clariostar or Biotek Synergy HT). BRET values are reported in milli-BRET (mBRET) units (mBU), obtained by dividing the acceptor luminescence by the donor luminescence and multiplying the result by a factor of 1,000. BRET values were converted to blank-corrected probe occupancies (%) according to equation [1]: (1) Probeoccupancy(%)=X−Z/Y−Z×100 where X = mBRET value in the presence of the test compound and the probe, Y = mBRET value in the presence of probe only, and Z = mBRET value in the absence of probe and test compound.
To determine apparent dissociation constants from saturation binding curves, mBRET values were plotted as a function of probe concentration, and probe affinity values (KD) were determined using the hyperbolic dose-response equation for binding to a single site available in GraphPad Prism (v. 9.1.0).

Assay [2] has as its target T1, NLuc::LmxCLK1. Nature of the assay: cell-based. The assay is classed as cell-based. In a few lines:
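NanoBRET tracer displacement in live cells expressing NLuc-tagged CLK1, test compounds at 10 µM fixed, 1% DMSO final. Acceptor/donor emission (610/460 nm) ratio gives mBRET, converted to blank-corrected probe occupancy (%); probe KD from single-site saturation binding fits.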

For assay [3], the target named is T1, NLuc::LmxCLK1. Nature of the assay: In-cell BRET target engagement in intracellular amastigotes expressing NLuc::LmxCLK1. The assay is classed as cell-based. The protocol:
(§2) L. mexicana (strain MNYC/BZ/62/M379) promastigotes were cultivated in medium 199 (M199) (Earle’s Salts - Gibco) supplemented with 10% (v/v) heat-inactivated fetal calf serum (HIFCS – Cultilab) and 1% Penicillin/Streptomycin solution (Sigma-Aldrich) at 26 °C. Phenotypic drug response assays in null mutant and point-mutation mutant lines were performed in HOMEM supplemented with 10% (v/v) heat-inactivated fetal calf serum (HIFCS – Gibco). THP-1 monocytes were differentiated in adherent macrophages with 50 ng of PMA for 72 h at 37 °C and 5% CO2 before infection with stationary phase promastigotes (ratio 10 promastigotes:1 macrophage) for 6 h, followed by washing to remove non-internalized Leishmania. Infected macrophages were incubated at 34 °C and 5% CO2 for 48 h in RPMI (Gibco) supplemented with 10% HIFCS and 1% Penicillin/Streptomycin solution.
as §1
Background: Bioluminescence resonance energy transfer reports proximity on the nanometre scale.

Another assay concerns the target T2, LmxCLK1 (Leishmania mexicana, UniProt E9AMP2).
T2 sequence (E9AMP2 1-422): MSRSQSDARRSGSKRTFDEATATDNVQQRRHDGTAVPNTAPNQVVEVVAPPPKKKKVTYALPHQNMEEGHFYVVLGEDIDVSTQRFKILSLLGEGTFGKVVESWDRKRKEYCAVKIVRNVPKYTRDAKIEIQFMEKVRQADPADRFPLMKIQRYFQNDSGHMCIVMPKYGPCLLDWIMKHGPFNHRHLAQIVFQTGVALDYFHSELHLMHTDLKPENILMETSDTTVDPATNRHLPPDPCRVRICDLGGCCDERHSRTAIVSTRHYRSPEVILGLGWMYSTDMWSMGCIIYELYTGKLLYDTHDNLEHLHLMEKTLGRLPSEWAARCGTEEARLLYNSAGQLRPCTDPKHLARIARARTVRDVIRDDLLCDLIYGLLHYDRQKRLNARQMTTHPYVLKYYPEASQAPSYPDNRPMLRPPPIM
The experiment in a line: HTRF (TR-FRET) enzymatic inhibition assay. The assay is classed as biochemical. Conditions: IC50 enzymatic inhibition of LmxCLK1, purified LmxCLK1, 30-min pre-incubation, 66 µM ATP. The method, then: The enzymatic activity of full-length LmxCLK1 was monitored using a homogenous time-resolved fluorescence (HTRF)-based assay (HTRF KinEASE-STK S3 kit, Cisbio - catalog #62ST3PEC). For IC50 value determination, the data from two independent experiments performed in duplicate were fitted to the sigmoidal dose-response (variable slope) equation available in GraphPad Prism (v. 9.1.0). Detailed information for IC50 determination can be found in the Supplementary Information. […]
min at 4 °C. The supernatants were loaded onto an immobilized metal affinity chromatography (IMAC) […]
column (5 mL HisTrap FF Crude, GE Healthcare) and washed in Binding Buffer containing 30 mM imidazole.
Proteins were eluted in Binding Buffer with 300 mM imidazole. To remove the N-terminal 6xHis-tag […]
introduced during cloning (see above), proteins were incubated with TEV protease during dialysis […]
overnight at 4 °C into Gel Filtration Buffer (20 mM HEPES, 500 mM NaCl, 5% glycerol, 0.5 mM TCEP).
Recombinant proteins were further purified using reverse affinity chromatography on Ni-Sepharose […]
followed by gel filtration (Superdex 200 16/60, GE Healthcare), and concentrated using 10 kDa molecular […]
weight cut-off centrifugal concentrators (Millipore). LmxCLK1 (CQMED clone ID LmxCLK1-cb001) and […]
NLuc-LmxCLK1 (CQMED clone ID LmxCLK1-cb021) proteins were stored at -80 °C for in vitro biochemical […]
assays at 0.5 mg/mL and 0.7 mg/mL, respectively, measured by UV absorbance with a NanoDrop […]
spectrophotometer (Thermo Scientific), using the calculated molecular weight and estimated extinction […]
Purified proteins were further analyzed by LC-ESI-MS in a XEVO G2 Sx Q-ToF (Waters). Expected intact […]
masses for LmxCLK1 (CQMED clone ID LmxCLK1-cb001) and NLuc-LmxCLK1 (CQMED clone ID LmxCLK1- […]
cb021) were: 48,791.14 Da and 68,411.71 Da, respectively.
We monitored the activity of recombinantly produced full-length LmxCLK1 (CQMED clone ID LmxCLK1- […]
cb001) using a commercially-available homogenous time-resolved fluorescence (HTRF)-based assay (HTRF […]
KinEASE-STK S3 kit, Cisbio - catalog #62ST3PEC). Assay development included establishing reaction […]
parameters (optimal enzyme concentration, ATP concentration and reaction time).
(15-point, 3-fold serial dilution and a highest final assay concentration of 10 µM) prior to transfer (100 nL) […]
to a black, 384-well, round bottom, low-volume plate (Corning catalog #4514) containing a mixture of […]
LmxCLK1 and peptide substrate in kinase buffer using an automated liquid transferring system (CYBIO […]
FeliX®, Analytik Jena, Jena, Germany). […]
started by the addition of ATP and allowed to proceed for 75 min at 30 °C. Final concentrations for reaction […]
components were: 6 nM LmxCLK1, 66 µM ATP (10× KM,ATP), 1 µM peptide (STK Substrate 3-biotin, Cisbio).
All components were prepared in 1× Enzymatic Buffer (Cisbio) supplemented with 5 mM MgCl2, 1 mM […]
DTT, 0.01% Tween-20. The reaction was stopped by the addition of Detection Buffer containing EDTA, […]
Fluorescence signal was measured using a CLARIOstar microplate reader (BMG LABTECH) with excitation […]
at 330 nm, emission at 665 nm (acceptor) and 620 nm (donor), integration delay 60 μs and integration […]
time 400 μs. All reactions were done in duplicate and two independent experiments were performed.
Enzyme activity was expressed as the background-corrected HTRF ratio of the acceptor and donor […]
emission signals according to equation [1]:
(also on this page, place not known: imi dazole. Ni -Sepharose background -corrected (665/620)=3Acceptor!!"#$ −backgroundD.10,000 Downloaded from http://pubs.acs.org/aidcbc/article-supplement/3662943/pdf/id5c00610_si_001/ by guest on 07 August 2026) […]
where background is the background fluorescence obtained in the absence of enzyme (blank).
To determine IC50 values, the background-corrected HTRF ratio was plotted as a function of test
In general terms: In TR-FRET formats the signal depends on donor and acceptor labels being close together.

In assay [4] the test system is L. mexicana promastigotes. Nature of the assay: Promastigote viability (Alamar Blue/resazurin). The assay is classed as cell-based. Conditions: Leishmania mexicana; 48 h compound exposure; read-out: EC50 promastigote viability. The method, then:
Next, we evaluated GZD824 ability to reduce the viability of L. mexicana promastigotes by monitoring the reduction of resazurin (Alamar Blue).[31]
as §2
For evaluation of drug effect on promastigote and uninfected macrophage viability, cells were cultivated in the presence of test compounds for 24 h and incubated with 10% AlamarBlue™ Cell Viability Reagent (ThermoFisher) for 24 h before measuring fluorescence at λex 540 nm/λem 590 nm. Untreated cells (1% DMSO) were set as 100 % viable cells. Intracellular amastigotes were treated with compounds for 48 h. Slides with paraformaldehyde-fixed and DAPI-stained cells were imaged on a Zeiss AxioImager microscope – at least 200 macrophages per drug concentration and DMSO control. Experiments were performed in duplicate. The total number of amastigotes was normalized by the number of macrophages counted. For EC50 determination, the data was fitted to the sigmoidal dose-response (variable slope) equation in GraphPad Prism (v.9.1.0).
A general note: Alamar Blue is a resazurin reagent that responds to reducing activity.

Molecules are shown by their SMILES. Some results are limits rather than exact numbers.

In the case of `Cc1ccc(C(=O)Nc2ccc(CN3CCN(CCCNC(=O)CCC4=[N+]5C(=Cc6ccc(-c7ccc[nH]7)n6[B-]5(F)F)C=C4)CC3)c(C(F)(F)F)c2)cc1C#Cc1cnc2[nH]ncc2c1` [SV363], the EC50 at NLuc::LmxCLK1 [1] was more than 1000 nM.

In the case of `Cc1ccc(C(=O)Nc2ccc(CN3CCN(CCCNC(=O)c4ccc(C(=O)O)c(-c5c6ccc(=O)cc-6oc6cc(O)ccc56)c4)CC3)c(C(F)(F)F)c2)cc1C#Cc1cnc2[nH]ncc2c1` [SV366], the EC80 on NLuc::LmxCLK1 [1] (0.5 h, read-out: EC80 tracer titration, purified NLuc-LmxCLK1) stood at 59.4 nM; at NLuc::LmxCLK1 [2] (0.5 h, read-out: EC80 tracer titration in promastigotes), 1050 nM; at NLuc::LmxCLK1 [3] (0.5 h, read-out: EC80 tracer titration in intracellular amastigotes), 200 nM. For the same compound, the EC50 on NLuc::LmxCLK1 [1] (read-out: EC50 tracer titration, purified NLuc::LmxCLK1, BRET probe binding) was found to be 8.4 nM; at NLuc::LmxCLK1 [2] (read-out: EC50 tracer titration in promastigotes, live promastigotes), 383 nM; on NLuc::LmxCLK1 [3] (read-out: EC50 tracer titration in intracellular amastigotes, infected macrophages), 72.6 nM. For the same compound, at NLuc::LmxCLK1 [1] (saturation binding to purified NLuc::LmxCLK1), the Kd came to 5.9 nM. Moreover, at NLuc::LmxCLK1 [3] (tracer titration), the “Lower EC50 in intracellular amastigotes compared to promastigotes” value is given as “approximately 5 fold”.

On to `CN[C@@H]1C[C@H]2O[C@@](C)([C@@H]1OC)n1c3ccccc3c3c4c(c5c6ccccc6n2c5c31)C(=O)NC4` [Staurosporine], for which the midpoint of inhibition at LmxCLK1, the IC50, lay at 460 nM. For the same compound, the EC50 in assay [4] was found to be 900 nM.

What is called Kd is the constant that tells how readily two partners part at equilibrium. One may read the IC50 as the concentration that inhibits the measured activity by half.
